Assays:
Assay type in all cases: cell-based, C57BL/6 mice
[1] = system: organoid single cells (clusters ENR, ENR+CV, ENR+CD); assay: Seq-Well single-cell RNA-sequencing and transcriptional scoring of ENR+CV, ENR and ENR+CD organoids; details: p<2.2×10^−16
Description: Applicants performed scRNA-seq using the Seq-Well platform on cells from ENR+CD and the precursor ENR+CV conditions to analyze alongside conventional ENR organoids. To ensure experimental robustness, Applicants assessed quality metrics for number of genes, unique molecular identifiers (UMIs), mitochondrial genes, and ribosomal genes by cluster, all of which fell within expectation (FIG. 11).
To assess sub-population structure and provide a more robust measure of composition beyond canonical marker genes, Applicants performed unsupervised KNN graph-based clustering on the captured cells (FIG. 4C,D and Table 1 for full gene lists), distinguishing four clusters in each treatment condition. Applicants then scored individual clusters according to the amount of the transcriptome within each cell dedicated to synthesizing the respective enriched proteins from the bulk proteome data.
To confirm and extend the findings of pathway-based modulation, Applicants scored clusters for enrichment or depletion of canonical growth factor-induced pathways.

[2] = system: in vitro PCs (CD24+ & LYZ+) in ENR+CD culture; NUPR1; assay: Trifluoperazine (NUPR1 inhibition) treatment of ENR+CD cultures, flow cytometry of viability and CD24/LYZ populations
Description: Lastly, Applicants sought to use this physiologically-improved in vitro PC system (ENR+CD) to identify novel factors potentially supportive of PC survival or differentiation. […] Intriguingly, Nupr1 is a stress-response gene, known to promote cellular survival and senescence through mediation of autophagy, and has primarily been studied in the context of cancer. Autophagy and stress response have repeatedly been implicated through GWAS study in PCs in IBD, however Nupr1 has only ever been reported in a single IBD GWAS study, and its role in PC biology has not been formally investigated. With the model, Applicants sought to test the role of NUPR1 on in vitro PC survival, through the small molecule inhibition of NUPR1 with trifluoperazine (TFP).
Flow cytometry. Cell clusters were isolated from Matrigel as previously described and resuspended in TrypLE Express at 37° C. for 20 mins to dissociate into single cells. Dissociated cells were centrifuged at 300 g for 3 mins at 4° C. The pellet was resuspended in FACS buffer (1% FBS in PBS, Thermo Fisher Scientific) and strained into a 5-mL filter cap tube using a 40 μm filter. The cell suspension was transferred to a flow prep microcentrifuge tube and centrifuged at 300 rcf for 3 min. Cell pellets were resuspended in a Zombie violet dye (BioLegend 100X) in FACS buffer for viability staining followed with 1% PFA fixation for 20 minutes at RT. Pellets were permeabilized for 20 minutes at RT with staining buffer (0.5% Tween-20 in FACS buffer, Sigma), and co-stained with rabbit anti-human FITC-Lyz (100X) and rat anti-mouse APC-CD24 (100X) antibodies diluted in staining buffer for 45 min at RT. Flow cytometry was performed using a BD LSR II HTS (BD; Koch Institute Flow Cytometry Core at MIT). Initial settings and laser voltages were determined with unstained, single channel stains or secondary-only controls (data not shown). Flow cytometry data was analyzed using FlowJo v10.7 software.

[3] = system: LYZ secretion by Paneth cells in organoid culture; assay: Lysozyme functional secretion assay (EnzChek), basal and CCh-stimulated
Description: In addition to the morphological, proteomic, and transcriptional characterization of PC phenotype in ENR+CD and ENR, Applicants sought to measure physiological function by assessing stimulant-induced secretion of antimicrobials. Applicants assessed the dynamics of LYZ accumulation in media supernatant of cultures following media wash, basally and after stimulation with carbachol (CCh), a cholinergic agonist known to induce PC secretion. […] The observed PC secretion in response to CCh is consistent with observations made in ex vivo crypts, though over appreciably longer time scales, likely due to the added diffusion barrier of the organoid structure and matrigel. Applicants next identified how LYZ secretion changes over the course of differentiation. Beginning with an ISC-enriched population, Applicants assayed for secreted LYZ in cell culture supernatants every two days for six days of ENR+CD culture, following a 24-hour stimulation with CCh or without (basal collection/non-stimulated).
Lysozyme functional secretion assay. Lysozyme secretion was measured using a Lysozyme Assay Kit (EnzChek; Thermo Fisher). Briefly, cells suspended in Matrigel in 24-well plates were washed (basal culture media 3X) and either supplemented with 500 μL of basal culture media or basal culture media plus 10 μM Carbachol (CCh, Sigma Aldrich) for 24 hours at 37° C. Following stimulation, culture plates were spun at high speed (>2000 g) for 5 min at RT to pellet cell debris and loose Matrigel. 25 μL of conditioned supernatant was removed from the top of each well and quantified per manufacturer's protocol.

[4] = system: intracellular proteome of ENR+CD and ENR organoids; assay: LC-MS/MS TMT proteomics of ENR+CD versus ENR organoids; details: for change: up = enriched in ENR+CD, down = enriched in ENR, FDR<0.05 and log fold change cut-off
Description: Because PCs are highly secretory, protein-rich cells, Applicants sought to assess the total intracellular proteome between conditions through liquid chromatography mass spectrometry (LC-MS/MS)-based proteomics. Applicants quantified relative protein abundance across eight samples using isobaric mass tag labeling from four ENR and four ENR+CD samples (M1-1 through M2-2, first digit denotes biological donor, second digit denotes technical replicate) (FIG. 3A). Samples were processed and analyzed in a single 10-plex by LC-MS/MS (FIG. 9A).
To affirm the reproducibility of the associated proteins in the ENR+CD-enriched proteome, Applicants performed relative quantification within differentiation sets.
Mass spectrometry proteomics sample preparation, sequencing, and quantification. Organoid cell pellets were isolated from Matrigel with mechanical dissociation and washed (cold PBS 5X) to remove residual extracellular protein. Proteins were extracted from cell pellets with 8 M urea (Sigma), reduced with 5 mM DTT (Thermo Fisher Pierce) for 45 minutes, alkylated with 10 mM IAA (Sigma) for 45 minutes in the dark, and double digested with both Lysyl Endopeptidase “LysC” (Wako) and trypsin (Promega) overnight at RT. A small aliquot of cellular lysate was removed from each sample for protein quantification via the Pierce™ BCA Protein Assay Kit (Pierce). After proteolytic digestion, the samples were quenched using formic acid to a final concentration of 1.0% and subsequently desalted on 10 mg OASIS HLB solid phase columns (Waters).
The peptides were labeled with TMT-10 isobaric mass tag reagent according to manufacturer's instructions (ThermoFisher Scientific). The peptides were labeled at a 1:8 ratio of peptide to TMT reagent, followed by 1-hour incubation at RT with bench top shaking at 850 rpm. After incubation, a […] of labeled tryptic peptide was removed from each labeled condition, desalted with C18 stage tips, and analyzed via LC-MS/MS using a Thermo Fisher Q Exactive Plus Hybrid Mass Spectrometer (QE-Plus) coupled to a Thermo Fisher EASY-nLC 1000 liquid chromatograph to ensure isobaric label incorporation >95%. An additional 1.0 μg of labeled tryptic peptide was removed from each channel, mixed together, desalted on a C18 stage tip, and analyzed via LC-MS to ensure equal relative protein loads. During these quality control steps, the labeled peptides were stored, unquenched at −80° C.

[5] = doses above luM, in combination with ENR+CD for six days

In the case of `C[C@H](NC(=O)Cc1cc(F)cc(F)c1)C(=O)N[C@H](C(=O)OC(C)(C)C)c1ccccc1` [DAPT], the “Notch target gene depletion, effect size” value ([1]; ENR+CD-4 vs ENR-4) is reported as −0.658.

For `CN1CCN(CCCN2c3ccccc3Sc3ccc(C(F)(F)F)cc32)CC1` [TFP, trifluoperazine], the cellular viability ([2]; added for two days following a six-day course of ENR+CD) was “profound, but not total, decline in cellular viability”, the “toxicity, preference to PCs (CD24+ & LYZ+) and PC-like populations” value ([2]; concurrent with 6-day ENR+CD differentiation (FIG. 7C)) was “dose-dependent toxicity” and the “cell death during differentiation” value [2, 5] was “near total cell death”. For the same compound, the “identity of surviving cells” value [2, 5] was “primarily non-Paneth”, the “selectivity of toxicity between cell populations” value ([2]; two days following six-day ENR+CD) was “selectively more toxic to PC and PC-progenitor populations relative to non-PC populations” and the “toxicity, preference to PCs (CD24+ & LYZ+) and PC-like populations” value ([2]; two-day treatment following 6-day ENR+CD differentiation (FIG. 7D)) was “dose-dependent toxicity”.

For `Cc1c[nH]c(-c2cnc(NCCNc3ccc(C#N)cn3)nc2-c2ccc(Cl)cc2Cl)n1` [CHIR, CHIR99021], the “Wnt target gene enrichment, effect size” value ([1]; all ENR+CD clusters vs ENR-4) was over 0.999.

With `C[N+](C)(C)CCOC(N)=O` [CCh, carbachol] the “plateau of LYZ accumulation in supernatant” value ([3]; 10 μM, six day ENR+CD culture) was “plateaued around six hours post-wash”, the “LYZ accumulation in media supernatant after stimulation” value ([3]; 10 μM, six day ENR+CD culture, post-wash) was “rapid accumulation of LYZ within two hours” and the “functional LYZ secretion (stimulated relative to basal) over differentiation” value ([3]; 24-hour stimulation, days four and six of ENR+CD culture) was “Notable increases in functional secretion”.

In the case of P18894, the “Average logFC” value ([4]; protein abundance, ENR+CD versus ENR organoids, aggregate of the four sample pairs) is reported as −1.376, the “M1-1 Log2 Median Normalized” value ([4]; protein abundance, ENR+CD versus ENR organoids, replicate M1-1, log2 ratio) is reported as −1.222 and the “M1-2 Log2 Median Normalized” value ([4]; protein abundance, ENR+CD versus ENR organoids, replicate M1-2, log2 ratio) is reported as −1.706. For the same compound, the “M2-1 Log2 Median Normalized” value ([4]; protein abundance, ENR+CD versus ENR organoids, replicate M2-1, log2 ratio) was −1.8305, the “M2-2 Log2 Median Normalized” value ([4]; protein abundance, ENR+CD versus ENR organoids, replicate M2-2, log2 ratio) was −0.745 and the change [4] was “down”.

With Q60936 the “Average logFC” value ([4]; ENR+CD versus ENR organoids, sample pairs in aggregate (n=4, 2 technical replicates from two biological donors)) was −1.292, the “M1-1 Log2 Median Normalized” value ([4]; protein abundance ratio ENR+CD versus ENR organoids, sample pair M1-1, LC-MS/MS TMT proteomics) was −1.293 and the “M1-2 Log2 Median Normalized” value ([4]; protein abundance ratio ENR+CD versus ENR organoids, sample pair M1-2, LC-MS/MS TMT proteomics) was −1.012. For the same compound, the “M2-1 Log2 Median Normalized” value ([4]; protein abundance ratio ENR+CD versus ENR organoids, sample pair M2-1, LC-MS/MS TMT proteomics) was −1.8255, the “M2-2 Log2 Median Normalized” value ([4]; protein abundance ratio ENR+CD versus ENR organoids, sample pair M2-2, LC-MS/MS TMT proteomics) was −1.133 and the change [4] was “down”.

From patent publication US11994512B2, “Single-cell genomic methods to generate ex vivo cell systems that recapitulate in vivo biology with improved fidelity” (Massachusetts Institute of Technology, priority 2018, dated 2024)
